Read-outs that look alike come from different tables or passages of the source.
Legend:
[1] = system: Laï virus in MT2 cells (human lymphocytic cell line); test: MT2 cells infected with Laï virus, real-time PCR of viral RNA of the supernatant; type: cell-based, HIV-1; settings: for viral RNA of the supernatant, 10 μM / viral RNA of the supernatant, 25 μM / viral RNA of the supernatant, 50 μM / viral RNA of the supernatant, 100 μM: 3 days of culture, control = virus without any added compound; for viral replication in human lymphocytes (in words): summary of Table 3
Experimental: In an experiment, MT2 cells (human lymphocytic cell line) are infected with the Laï virus to a multiplicity of infection of 0.3 and incubated with compounds A, B, C or D at four different concentrations.
After 3 days of culture, real-time PCR quantification of the viral RNA of the supernatant is performed (COBAS Ampliprep/COBAS TaqMan HIV-1 assay, version 2).
The results are expressed as percentage of control (virus without any added compound) in Table 3.

[2] = cited from earlier work
[3] = system: wild type NL4-3 virus (HIV-1) in HeLa-p4 cells; test: HeLa-p4 single-cycle HIV-1 infectivity, beta-galactosidase CPRG test; type: cell-based; settings: Human immunodeficiency virus 1, NL43, HeLaP4, 48 hours after infection, control = NL4-3 virus alone; for activity at 50 µM: read-out: Hela-p4 CPRG 50 μM; for activity at 100 µM: read-out: Hela-p4 CPRG 100 μM
Outline: (§1)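 HeLa CD4 LTR-LacZ cells infected with 1 ng p24 of wild-type NL4-3 alongside graded compound concentrations; β-galactosidase measured 48 h post-infection by CPRG colorimetry, expressed as percent of untreated virus control. Viability assessed by MTS absorbance at […].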

[4] = system: J-Lat cells; test: J-Lat cells, percentage of GFP-positive cells by cytometry; type: cell-based; settings: 24 h, compound alone
Outline: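 J-Lat cells (5.105 per well, RPMI/10% FBS) treated 24 h with compound alone at 37 °C. After PFA fixation, GFP-positive cells counted by flow cytometry and reported as percentage of living fluorescent cells.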

[5] = system: HeLa-p4 cells; test: Cell viability assay (MTS) on HeLa-p4 cells; type: cell-based; settings: cell viability
Outline: as §1

[6] = system: HIV in T CD4+ cells from HIV-infected patients; test: HIV production by CD4+ T cells of HIV-infected, antiretroviral-treated, aviremic patients (real time PCR); type: cell-based, HIV-1; settings: one line per patient; for Compound: ratio of the viral load of interest/viral load of negative control: compound alone
Description: For experiments using primary cells obtained from HIV-infected, antiretroviral-treated, aviremic patients, total CD4+ cells are isolated by a MACS) Whole Blood MicroBead Technology (Miltenyi). Briefly, T CD4+ cells from whole blood are magnetically labeled with MACS MicroBeads and specific antibodies. Cells are separated in a MACS Column placed in a MACS Separator. The flow-through fraction can be collected as the negative fraction depleted of the labeled cells. The column is removed from the separator and the retained cells are eluted as the enriched, positively selected cell fraction. The T CD4+ cells were then cultured with a T cell activation/expansion kit (Miltenyi). The cells are activated for up to 3 days with Anti-Biotin MACSiBead Particle conjugated to monoclonal anti-biotin antibodies (anti CD2-biotin, […] and anti CD28-biotin). Expansion is achieved by adding IL-2 and fresh medium for 4 days. Then, these T CD4+ cells are considered as positive culture. A negative control was the same proportion of cells cultured without stimuli like antibodies and IL-2. The T CD4+ cells were cultured with compounds alone or in combination with antibodies or IL-2. The HIV production in cell culture media was measured by real time PCR (Cobas AmpliPrep/Cobas Taqman HIV-1 test, V2.0, Roche). The results are expressed in table 2 as a ratio of the viral load of interest/viral load of negative control or as a ratio of the viral load of interest/viral load of positive control.

[7] = system: HIV; settings: cited from earlier work

Row | SMILES | viral RNA of the supernatant, 10 μM [1] | viral RNA of the supernatant, 25 μM [1] | viral RNA of the supernatant, 50 μM [1] | viral RNA of the supernatant, 100 μM [1] | viral replication in human lymphocytes (in words) [1] | activity at 50 µM [3] | activity at 100 µM [3] | J-lat 50 μM [4] | Hela-p4 MTS 50 μM [5] | Hela-p4 MTS 100 μM [5] | further results
1 | COC(=O)C(Cc1ccccc1)N1C[C@H](N)C[C@H](N)C1 (stereo partly drawn) [Compound B] | 420 percentage of control | 40 percentage of control | 70 percentage of control | 32400 percentage of control | induce viral replication at an extremely high level | – | – | – | – | – | –
2 | Cc1[nH]c2ccccc2c1CCNCc1ccc(/C=C/C(=O)NO)cc1 [LBH589] | – | – | – | – | – | – | – | – | – | – | adverse effects in clinical trials ([2]; in vivo): important adverse effects
3 | COc1ccc(CCN2C[C@H](N)C[C@H](N)C2)cc1OC [Compound A] | 130 percentage of control | 60 percentage of control | 50 percentage of control | 73200 percentage of control | induce viral replication at an extremely high level | – | – | – | – | – | –
4 | CC(C)(C)OC(=O)N[C@@H]1CNC[C@H](NC(=O)OC(C)(C)C)C1 [ECO02-051-C] | – | – | – | – | – | 124% | 200% | 1.1 percentage of the living fluorescent cells | 95 | 96 | activity at 200 µM [3]: 397%; Hela-p4 MTS 200 μM [5]: 77; Compound: ratio of the viral load of interest/viral load of negative control [6]: 1; Compound + IL2: ratio of the viral load of interest/viral load of negative control ([6]; compound in combination with IL2): 1
5 | C/C=C1\NC(=O)[C@H]2CSSCC/C=C/[C@H](CC(=O)N[C@H](C(C)C)C(=O)N2)OC(=O)[C@H](C(C)C)NC1=O [Romidepsin] | – | – | – | – | – | – | – | – | – | – | adverse effects in clinical trials ([2]; in vivo): important adverse effects
6 | N[C@@H]1C[C@H](N)CN(c2ccc(NC(=O)c3ccccc3)c(O)c2)C1 [Compound C] | 21200 percentage of control | 83500 percentage of control | 66400 percentage of control | 931700 percentage of control | induce viral replication at an extremely high level | – | – | – | – | – | –
7 | CCN(CC)C(=S)SSC(=S)N(CC)CC [Disulfirame] | – | – | – | – | – | – | – | – | – | – | capacity to induce HIV replication in clinical trial [7]: low capacity to induce HIV replication
8 | N[C@@H]1CNC[C@H](N)C1 [ECO01-025-C2, piperidine-3,5-diamine] | – | – | – | – | – | 166% | 280% | 0.7 percentage of the living fluorescent cells | 104 | 79 | activity at 200 µM [3]: 317%; Hela-p4 MTS 200 μM [5]: 70; Compound: ratio of the viral load of interest/viral load of negative control [6]: 1
9 | O=C(CCCCCCC(=O)Nc1ccccc1)NO [vorinostat] | – | – | – | – | – | – | – | – | – | – | adverse effects in clinical trials ([2]; first results of on-going clinical trials): important adverse effects
10 | Cc1ccccc1CCN1C[C@H](N)C[C@H](N)C1 [ECO01-028-C, 1-(2-methylphenethyl)piperidine-3,5-diamine] | – | – | – | – | – | 108% | 113% | 0.1 percentage of the living fluorescent cells | 91 | 94 | J-lat 100 μM ([4]; 100 μM): 0 percentage of the living fluorescent cells

Source: patent US20170183306A1, “CYCLIC COMPOUNDS HAVING A 1,3 DIAMINO-FUNCTIONALITY FOR USE IN THE TREATMENT OF HIV INFECTION” (Universite Paris Descartes, priority 2014, published 2017)
